Measured values published in US7192943B2, “Cephem compounds” (Astellas Pharma Inc., priority 2003, dated 2007).
In brackets after ≈: the same amount, converted by molar mass.

System: Pseudomonas aeruginosa FP 1380
Test: In vitro antibacterial activity (MIC) by two-fold agar-plate dilution method
Format: cell-based
Details: FP1380; test strain Pseudomonas aeruginosa FP 1380; heart infusion agar, incubation at 37° C. for 20 hours
Description: Now in order to show the utility of the object compound [I], the test data on MIC (minimal inhibitory concentration) of a representative compound of this invention are shown in the following.
In vitro antibacterial activity was determined by the two-fold agar-plate dilution method as described below.
One loopful of an overnight culture of each test strain in Trypticase-soy broth (10^6 viable cells per ml) was streaked on heart infusion agar (HI-agar) containing graded concentrations of representative test compound, and the minimal inhibitory concentration (MIC) was expressed in μg/ml after incubation at 37° C. for 20 hours.

Structure (SMILES)	MIC
Cn1c(N)c(NC(=O)N(CCN)CCCN)c[n+]1CC1=C(C(=O)[O-])N2C(=O)[C@@H](NC(=O)/C(=N\OC(C)(C)C(=O)O)c3nsc(N)n3)[C@H]2SC1 [Compound (c), 7β-[(Z)-2-(5-amino-1,2,4-thiadiazol-3-yl)-2-(1-carboxy-1-methylethoxyimino)acetamido]-3-[3-amino-4-({[N-(2-aminoethyl)-N-(3-aminopropyl)amino]carbonyl}-amino)-2-methyl-1-pyrazolio]methyl-3-cephem-4-carboxylate]	1 µg/mL (≈ 1.38 µM)
Cn1c(N)c(NC(=O)NC(CN)CN)c[n+]1CC1=C(C(=O)O)N2C(=O)[C@@H](NC(=O)/C(=N\OC(C)(C)C(=O)O)c3nsc(N)n3)[C@H]2SC1.O=S(=O)([O-])O [Compound (d), 7β-[(Z)-2-(5-amino-1,2,4-thiadiazol-3-yl)-2-(1-carboxy-1-methylethoxyimino)acetamido]-3-(3-amino-4-{3-[2-amino-1-(aminomethyl)ethyl]ureido}-2-methyl-1-pyrazolio)methyl-3-cephem-4-carboxylic acid hydrogensulfate]	1 µg/mL
Cn1c(N)c(NC(=O)CC(=O)NC(CN)CN)c[n+]1CC1=C(C(=O)[O-])N2C(=O)[C@@H](NC(=O)/C(=N\OC(C)(C)C(=O)O)c3nsc(N)n3)[C@H]2SC1 [Compound (e), 7β-[(Z)-2-(5-amino-1,2,4-thiadiazol-3-yl)-2-(1-carboxy-1-methylethoxyimino)acetamido]-3-{3-amino-4-[(3-{[2-amino-1-(aminomethyl)ethyl]amino}-3-oxopropanoyl)amino]-2-methyl-1-pyrazolio}methyl-3-cephem-4-carboxylate]	1 µg/mL (≈ 1.36 µM)

The remaining lines, values ahead:

MIC	Structure (SMILES)
128 µg/mL (≈ 234 µM)	CC(C)(O/N=C(\C(=O)N[C@@H]1C(=O)N2C(C(=O)[O-])=C(C[n+]3ccccc3)CS[C@H]12)c1csc(N)n1)C(=O)O [Ceftazidime, reference compound]
1 µg/mL (≈ 1.41 µM)	Cn1c(N)c(NC(=O)N(CCN)CCN)c[n+]1CC1=C(C(=O)[O-])N2C(=O)[C@@H](NC(=O)/C(=N\OC(C)(C)C(=O)O)c3nsc(N)n3)[C@H]2SC1 [Compound (a), 7β-[(Z)-2-(5-amino-1,2,4-thiadiazol-3-yl)-2-(1-carboxy-1-methylethoxyimino)acetamido]-3-{3-amino-4-({[bis(2-aminoethyl)amino]carbonyl}amino)-2-methyl-1-pyrazolio}methyl-3-cephem-4-carboxylate]
1 µg/mL	Cn1c(N)c(NC(=O)N(CCN)CCN)c[n+]1CC1=C(C(=O)O)N2C(=O)[C@@H](NC(=O)/C(=N\OC(C)(C)C(=O)O)c3nsc(N)n3)[C@H]2SC1.O=S(=O)([O-])O [Compound (b), 7β-[(Z)-2-(5-amino-1,2,4-thiadiazol-3-yl)-2-(1-carboxy-1-methylethoxyimino)acetamido]-3-{3-amino-4-({[bis(2-aminoethyl)amino]carbonyl}amino)-2-methyl-1-pyrazolio}methyl-3-cephem-4-carboxylic acid hydrogensulfate]
